{"source": "paper PMC7250896", "about": "“Inhibition of mitochondrial complex I by the novel compound FSL0260 enhances high salinity-stress tolerance in Arabidopsis thaliana” (Scientific Reports, 2020)", "test_system": "T1, mitochondrial complex I", "T1 construct": "native multi-subunit complex in sonicated mitochondria isolated from potato tuber; with Gamma-CA (complex I subunit detected in the pull-down)", "assay": "deamino-NADH oxidation ([…] nm) in sonicated mitochondria; OCR; pull-down with FSL0260-fixed agarose beads", "type": "biochemical, Solanum tuberosum"}
{"smiles": "Cc1ccc(S(=O)(=O)OCC2Oc3ccccc3C=C2C[n+]2ccccc2)cc1", "note": "(stereo not shown) [FSL0260]", "values": [{"measurement": "IC50", "result": 45.1, "unit": "µM"}]}
